Measurements reported in ChEMBL document CHEMBL1156251, “Structure--activity relationships of polymyxin antibiotics” (J Med Chem, 2010).
Values after ≈ are worked out from the molar mass of the structure shown. Where a SMILES comes first, the peptide text is derived from it. Bridges are numbered along the chain shown (N, C = ends). [ ]: non-standard residue; d: D form. The star is where a group is joined. Octanoyl = CCCCCCCC(=O)*; Dab = NCC[C@H](N)C(=O)O; Abu = CC[C@H](N)C(=O)O

Key:
[1] = tested on: Escherichia coli; assay: Antimicrobial activity against Escherichia coli at 10 ug/mL; type: functional
[2] = tested on: Escherichia coli; assay: Antimicrobial activity against Escherichia coli; type: functional
[3] = tested on: Pseudomonas aeruginosa; assay: Antimicrobial activity against Pseudomonas aeruginosa; type: functional, organism-based
[4] = tested on: Klebsiella pneumoniae; assay: Antimicrobial activity against Klebsiella pneumoniae; type: functional

**Q.** `CCCCCCCC(=O)N[C@H](C(=O)N[C@@H](CCN)C(=O)N[C@H]1CCNC(=O)[C@H]([C@@H](C)O)NC(=O)[C@H](CCN)NC(=O)[C@H](CC)NC(=O)[C@H](CC(C)C)NC(=O)[C@@H](Cc2ccccc2)NC(=O)[C@H](CCN)NC1=O)[C@@H](C)O` was tested. Which GI [1] did it give?
**A.** The GI was 60 square millimeter.

**Q.** What does the source list for `CCCCCCCC(=O)N[C@@H](CCN)C(=O)N[C@H](C(=O)N[C@@H](CCN)C(=O)N[C@H]1CCNC(=O)[C@H]([C@@H](C)O)NC(=O)[C@H](CCNC(=O)CCl)NC(=O)[C@H](CCN)NC(=O)[C@H](CC(C)C)NC(=O)[C@@H](Cc2ccccc2)NC(=O)[C@H](CCN)NC1=O)[C@@H](C)O` [CHLOROACETYL DAB9 POLYMYXIN B]?
**A.** MIC [2]: 0.454 µg/mL (≈ 0.359 µM); MIC [3]: 0.085 µg/mL (≈ 0.0671 µM); MIC [4]: 9.5 µg/mL (≈ 7.5 µM)

**Q.** What does the source list for `CCCCCCCC(=O)N[C@@H](CCN)C(=O)N[C@H](C(=O)N[C@@H](CCN)C(=O)N[C@H]1CCNC(=O)[C@H]([C@@H](C)O)NC(=O)[C@H](CCNC(=O)CO)NC(=O)[C@H](CCN)NC(=O)[C@H](CC(C)C)NC(=O)[C@@H](Cc2ccccc2)NC(=O)[C@H](CCN)NC1=O)[C@@H](C)O` [HYDROXYACETYL DAB9 POLYMYXIN B]?
**A.** MIC [2]: 1.54 µg/mL (≈ 1.23 µM); MIC [3]: 1.53 µg/mL (≈ 1.23 µM); MIC [4]: 22.6 µg/mL (≈ 18.1 µM)

**Q.** How did the GI [1] turn out when `CCCCCCCC(=O)N[C@H](C(=O)N[C@@H](CC)C(=O)N[C@H]1CCNC(=O)[C@H]([C@@H](C)O)NC(=O)[C@H](CCN)NC(=O)[C@H](CCN)NC(=O)[C@H](CC(C)C)NC(=O)[C@@H](Cc2ccccc2)NC(=O)[C@H](CCN)NC1=O)[C@@H](C)O` was run?
**A.** The GI was 32 square millimeter.

**Q.** Which results are given for `CCCCCCCC(=O)N[C@@H](CCN)C(=O)N[C@H](C(=O)N[C@@H](CCN)C(=O)N[C@H]1CCNC(=O)[C@H]([C@@H](C)O)NC(=O)[C@H](CCNC(=O)[C@@H](N)CS)NC(=O)[C@H](CCN)NC(=O)[C@H](CC(C)C)NC(=O)[C@@H](Cc2ccccc2)NC(=O)[C@H](CCN)NC1=O)[C@@H](C)O`?
**A.** MIC [2]: 1.68 µg/mL (≈ 1.3 µM); MIC [3]: 2.82 µg/mL (≈ 2.18 µM); MIC [4]: 11.3 µg/mL (≈ 8.75 µM)

**Q.** For `CCCCCCC(=O)N[C@H](C(=O)N[C@H](CO)C(=O)N[C@H]1CCNC(=O)[C@H]([C@@H](C)O)NC(=O)[C@H](CCN)NC(=O)[C@H](CCN)NC(=O)[C@H](CC(C)C)NC(=O)[C@@H](Cc2ccccc2)NC(=O)[C@H](CCN)NC1=O)[C@@H](C)O`, which GI [1] is on record?
**A.** The GI was 80 square millimeter.

**Q.** Which results are given for `CC(C)C[C@@H]1NC(=O)[C@@H](Cc2ccccc2)NC(=O)[C@H](CCN)NC(=O)[C@@H](NC(=O)[C@H](CCN)NC(=O)[C@H](NC(=O)[C@H](C)NC(=O)[C@@H](C)NC(=O)[C@H](C)NC(=O)[C@H](C)NC(=O)[C@@H](C)NC(=O)[C@H](C)N)[C@@H](C)O)CCNC(=O)[C@@H]([C@@H](C)O)NC(=O)[C@H](CCN)NC(=O)[C@H](CCN)NC1=O`?
**A.** MIC [2]: ≥ 500 µg/mL; MIC [3]: ≥ 500 µg/mL; MIC [4]: ≥ 500 µg/mL

**Q.** With `CCCCCCCCCC(=O)N[C@H](C(=O)N[C@H](CO)C(=O)N[C@H]1CCNC(=O)[C@H]([C@@H](C)O)NC(=O)[C@H](CCN)NC(=O)[C@H](CCN)NC(=O)[C@H](CC(C)C)NC(=O)[C@@H](Cc2ccccc2)NC(=O)[C@H](CCN)NC1=O)[C@@H](C)O` as the compound, how does the GI [1] read?
**A.** The GI was 130 square millimeter.

**Q.** How did the MIC [2] turn out when `CCC(C)CCCCC(=O)N[C@@H](CC/N=C/c1ccc(N(C)C)cc1)C(=O)N[C@@H](C(=O)N[C@@H](CC/N=C/c1ccc(N(C)C)cc1)C(=O)N[C@H]1CCNC(=O)[C@@H]([C@@H](C)O)NC(=O)[C@H](CC/N=C/c2ccc(N(C)C)cc2)NC(=O)[C@H](CC/N=C/c2ccc(N(C)C)cc2)NC(=O)[C@H](CC(C)C)NC(=O)[C@@H](Cc2ccccc2)NC(=O)[C@H](CC/N=C\c2ccc(N(C)C)cc2)NC1=O)[C@@H](C)O` (stereo not given in full) was run?
**A.** The MIC was 12 µg/mL (≈ 6.45 µM).

**Q.** And the MIC [4]?
**A.** Its MIC is 3.1 µg/mL (≈ 1.67 µM).

**Q.** For `CCCCCCCC(=O)N[C@H](C(=O)N[C@@H](CC)C(=O)N[C@H]1CCNC(=O)[C@H](CC(C)C)NC(=O)[C@H](CCN)NC(=O)[C@H](CCN)NC(=O)[C@H](CC(C)C)NC(=O)[C@@H](Cc2ccccc2)NC(=O)[C@H](CCN)NC1=O)[C@@H](C)O` (Octanoyl-T[Abu][Dab][Dab][dF]L[Dab][Dab]L; lactam 3-C), which GI [1] is on record?
**A.** Its GI is 50 square millimeter.

**Q.** How did the MIC [2] turn out when `CC(C)C[C@@H]1NC(=O)[C@@H](Cc2ccccc2)NC(=O)[C@H](CCN)NC(=O)[C@@H](NC(=O)[C@H](CCN)NC(=O)[C@H](NC(=O)[C@H](CCN)NC(=O)OCC2c3ccccc3-c3ccccc32)[C@@H](C)O)CCNC(=O)[C@@H]([C@@H](C)O)NC(=O)[C@H](CCN)NC(=O)[C@H](CCN)NC1=O` was run?
**A.** Its MIC is 8 µg/mL (≈ 6.22 µM).

**Q.** And the MIC [3]?
**A.** The MIC was 4 µg/mL (≈ 3.11 µM).

**Q.** And the MIC [4]?
**A.** The MIC was 16 µg/mL (≈ 12.4 µM).

**Q.** `CCCCCCCC(=O)N[C@@H](CCN)C(=O)N[C@H](C(=O)N[C@@H](CCN)C(=O)N[C@H]1CCNC(=O)[C@H]([C@@H](C)O)NC(=O)[C@H](CCNC(=O)C(N)CCCN)NC(=O)[C@H](CCN)NC(=O)[C@H](CC(C)C)NC(=O)[C@@H](Cc2ccccc2)NC(=O)[C@H](CCN)NC1=O)[C@@H](C)O` (stereo partly drawn) [L-LYSYL DAB9 POLYMYXIN B] was tested. Which MIC [2] did it give?
**A.** The MIC was 0.173 µg/mL (≈ 0.133 µM).

**Q.** What about the MIC [3] of the same compound?
**A.** Its MIC is 0.032 µg/mL (≈ 0.0245 µM).

**Q.** What about the MIC [4] of the same compound?
**A.** The MIC was 2.8 µg/mL (≈ 2.15 µM).
